tested on: rabbit skeletal myofibrils (approximately 90% fast fibers); experiment: Activation of fast skeletal myofibrils (PUMA coupled-enzyme ATPase assay); type: biochemical; settings: concentration at which the compound increased the enzymatic activity by 40%; calcium at pCa25; PM12 buffer pH 6.8
Description: Preparation of fast skeletal myofibrils: Rabbit skeletal myofibrils were prepared based upon the method of Herrmann et al. (Biochem. 32 (28): 7255-7263 (1993). Myofibrils were prepared from rabbit psoas muscle purchased from Pel-Freez Biologicals (Arkansas) within 2 days of ordering, stored on ice. Minced muscle was homogenized in 10 volumes of ice-cold “standard” buffer (50 mM Tris, pH 7.4, 0.1 M KOAc, 5 mM KCl, 2 mM dithiothreitol (DTT), 0.2 mM phenylmethylsulfonyl fluoride (PMSF), 10 μM leupeptin, 5 μM pepstatin, and 0.5 mM sodium azide) containing 5 mM ethylenediaminetetraacetic acid (EDTA) and 0.5% Triton X-100 using an Omni-Macro homogenizer. Myofibrils were recovered by low speed centrifugation (3000 rpm for 10 minutes) and washed 2 times in the Triton X-100 containing buffer to ensure removal of cellular membrane. Following the Triton washes, myofibrils were washed 3 times in “standard” buffer containing 2 mM magnesium acetate. A final wash in assay buffer (12 mM piperazine-1,4-bis(2-ethanesulfonic acid) (PIPES), pH 6.8, 60 mM KCl, 1 mM DTT) was performed and brought to 10% sucrose for flash freezing in liquid nitrogen and storage at −80° C.
Activation of Fast Skeletal Myofibrils: Fast fiber activators were identified by measuring the enzymatic activity of muscle myofibril preparations using the proprietary PUMA (trademark) (see, e.g., U.S. Pat. Nos. 6,410,254, 6,743,599, 7,202,051, and 7,378,254) assay system. Myofibril preparations consisted of rabbit skeletal muscle (approximately 90% fast fibers) that had been mechanically homogenized and washed with a detergent (Triton X-100) to remove cellular membranes. This preparation retained all of the sarcomeric components in a native conformation and the enzymatic activity was still regulated by calcium. Compounds were tested using a myofibril suspension and a level of calcium sufficient to increase enzymatic activity of the myofibrils to 25% of their maximal rate (termed pCa25). Enzymatic activity was tracked via a pyruvate kinase and lactate dehydrogenase-coupled enzyme system. This assay regenerates myosin-produced ADP into ATP by oxidizing NADH, producing an absorbance change at 340 nm. The buffering system was 12 mM PIPES, 2 mM MgCl2, 1 mM DTT at pH 6.8 (PM12 buffer). […] In Table 3, “Example Compound” refers to the compound labeled with the same number in Table 2.

Row | SMILES | AC1.4 [µM]
1 | CCC[C@H]1C(=O)Nc2ccccc2N1C(=O)Nc1ccc(OC)cc1 [Compound 55, (S)-N-(4-methoxyphenyl)-3-oxo-2-propyl-3,4-dihydroquinoxaline-1(2H)-carboxamide] | 1.88
2 | CCC[C@H]1C(=O)Nc2ccccc2N1C(=O)Nc1ccccc1F [Compound 56, (S)-N-(2-fluorophenyl)-3-oxo-2-propyl-3,4-dihydroquinoxaline-1(2H)-carboxamide] | 0.42
3 | CCC[C@H]1C(=O)Nc2ccccc2N1C(=O)Nc1cccc(F)c1 [Compound 57, (S)-N-(3-fluorophenyl)-3-oxo-2-propyl-3,4-dihydroquinoxaline-1(2H)-carboxamide] | 0.24
4 | CCC[C@H]1C(=O)Nc2ccccc2N1C(=O)Nc1ccc(F)cc1 [Compound 58, (S)-N-(4-fluorophenyl)-3-oxo-2-propyl-3,4-dihydroquinoxaline-1(2H)-carboxamide] | 0.26
5 | CCC[C@H]1C(=O)Nc2ccccc2N1C(=O)Nc1cnn(C)c1 [Compound 59, (S)-N-(1-methyl-1H-pyrazol-4-yl)-3-oxo-2-propyl-3,4-dihydroquinoxaline-1(2H)-carboxamide] | 1.96
6 | CCC[C@H]1C(=O)Nc2ccccc2N1C(=O)Nc1ccccc1C [Compound 60, (S)-3-oxo-2-propyl-N-(o-tolyl)-3,4-dihydroquinoxaline-1(2H)-carboxamide] | 0.82
7 | CCC[C@H]1C(=O)Nc2ccccc2N1C(=O)Nc1cccc(C)c1 [Compound 61, (S)-3-oxo-2-propyl-N-(m-tolyl)-3,4-dihydroquinoxaline-1(2H)-carboxamide] | 0.43
8 | CCC[C@H]1C(=O)Nc2ccccc2N1C(=O)Nc1ccc(C)cc1 [Compound 62, (S)-3-oxo-2-propyl-N-(p-tolyl)-3,4-dihydroquinoxaline-1(2H)-carboxamide] | 1.39
9 | CC[C@H](C)[C@H]1C(=O)Nc2ccccc2N1C(=O)c1cnn(C)c1 [Compound 63, (S)-3-((S)-sec-butyl)-4-(1-methyl-1H-pyrazole-4-carbonyl)-3,4-dihydroquinoxalin-2(1H)-one] | 0.04
10 | CCC[C@H]1C(=O)Nc2ccc(Cl)cc2N1C(=O)c1cnn(C)c1 [Compound 64, (S)-6-Chloro-4-(1-methyl-1H-pyrazole-4-carbonyl)-3-propyl-3,4-dihydroquinoxalin-2(1H)-one] | 0.24
11 | CCC[C@H]1C(=O)Nc2ccccc2N1C(=O)c1ccc2cncn2c1 [Compound 65, (S)-4-(imidazo[1,5-a]pyridine-6-carbonyl)-3-propyl-3,4-dihydroquinoxalin-2(1H)-one] | 0.39
12 | CCC[C@H]1C(=O)Nc2ccccc2N1C(=O)c1ccn2cncc2c1 [Compound 66, (S)-4-(imidazo[1,5-a]pyridine-7-carbonyl)-3-propyl-3,4-dihydroquinoxalin-2(1H)-one] | 0.17
13 | CCC[C@H]1C(=O)Nc2ccccc2N1C(=O)c1cnn(CCO)c1 [Compound 67, (S)-4-(1-(2-hydroxyethyl)-1H-pyrazole-4-carbonyl)-3-propyl-3,4-dihydroquinoxalin-2(1H)-one] | 1.31
14 | CC(C)C[C@H]1C(=O)Nc2ccccc2N1C(=O)c1cnn(C)c1 [Compound 68, (S)-3-isobutyl-4-(1-methyl-1H-pyrazole-4-carbonyl)-3,4-dihydroquinoxalin-2(1H)-one] | 0.16
15 | CCC[C@H]1C(=O)Nc2cccc(Br)c2N1C(=O)c1cnn(C)c1 [Compound 69, (S)-5-bromo-4-(1-methyl-1H-pyrazole-4-carbonyl)-3-propyl-3,4-dihydroquinoxalin-2(1H)-one] | 1.52
16 | CCC[C@H]1C(=O)Nc2ccccc2N1C(=O)c1cc2cccn2cn1 [Compound 70, (S)-3-propyl-4-(pyrrolo[1,2-c]pyrimidine-3-carbonyl)-3,4-dihydroquinoxalin-2(1H)-one] | 0.46
17 | CCC[C@H]1C(=O)Nc2ccccc2N1C(=O)c1cn[nH]c1 [Compound 71, (S)-3-propyl-4-(1H-pyrazole-4-carbonyl)-3,4-dihydroquinoxalin-2(1H)-one] | 0.54
18 | CC[C@H](C)[C@H]1C(=O)Nc2ccccc2N1C(=O)c1cn[nH]c1 [Compound 72, (S)-3-((S)-sec-butyl)-4-(1H-pyrazole-4-carbonyl)-3,4-dihydroquinoxalin-2(1H)-one] | 0.07
19 | CCC[C@H]1C(=O)Nc2ccccc2N1C(=O)c1cnc2[nH]ncc2c1 [Compound 73, (S)-3-propyl-4-(1H-pyrazolo[3,4-b]pyridine-5-carbonyl)-3,4-dihydroquinoxalin-2(1H)-one] | 0.11
20 | CC[C@H](C)[C@H]1C(=O)Nc2ccccc2N1C(=O)c1ccc(N)nc1 [Compound 74, (S)-4-(6-aminonicotinoyl)-3-((S)-sec-butyl)-3,4-dihydroquinoxalin-2(1H)-one] | 0.08
21 | CC[C@H](C)[C@H]1C(=O)Nc2ccccc2N1C(=O)c1ccc(=O)[nH]c1 [Compound 75, (S)-3-((S)-sec-butyl)-4-(6-oxo-1,6-dihydropyridine-3-carbonyl)-3,4-dihydroquinoxalin-2(1H)-one] | 0.05
22 | CCC[C@H]1C(=O)Nc2ccccc2N1C(=O)c1cnn(C2CC2)c1 [Compound 76, (S)-4-(1-cyclopropyl-1H-pyrazole-4-carbonyl)-3-propyl-3,4-dihydroquinoxalin-2(1H)-one] | 0.47

Next, values leading:

Row | AC1.4 [µM] | SMILES
23 | 0.08 | CC(C)[C@H]1C(=O)Nc2ccccc2N1C(=O)c1cnn(C)c1 [Compound 77, (S)-3-isopropyl-4-(1-methyl-1H-pyrazole-4-carbonyl)-3,4-dihydroquinoxalin-2(1H)-one]
24 | 0.16 | CC[C@H](C)[C@H]1C(=O)Nc2ccccc2N1C(=O)c1cnn(CCO)c1 [Compound 78, (S)-3-((S)-sec-butyl)-4-(1-(2-hydroxyethyl)-1H-pyrazole-4-carbonyl)-3,4-dihydroquinoxalin-2(1H)-one]
25 | 0.88 | CC[C@H](C)[C@H]1C(=O)Nc2ccccc2N1C(=O)c1cc[nH]n1 [Compound 79, (S)-3-((S)-sec-butyl)-4-(1H-pyrazole-3-carbonyl)-3,4-dihydroquinoxalin-2(1H)-one]
26 | 0.63 | CC[C@H](C)[C@H]1C(=O)Nc2ccccc2N1C(=O)c1cnn(CC(N)=O)c1 [Compound 80, 2-(4-((S)-2-((S)-sec-butyl)-3-oxo-1,2,3,4-tetrahydroquinoxaline-1-carbonyl)-1H-pyrazol-1-yl)acetamide]
27 | 0.22 | CC(C)[C@H]1C(=O)Nc2ccccc2N1C(=O)c1ccc(=O)n(C)c1 [Compound 81, (S)-3-isopropyl-4-(1-methyl-6-oxo-1,6-dihydropyridine-3-carbonyl)-3,4-dihydroquinoxalin-2(1H)-one]
28 | 0.26 | CC(C)[C@H]1C(=O)Nc2ccccc2N1C(=O)c1ccc(N)nc1 [Compound 82, (S)-4-(6-aminonicotinoyl)-3-isopropyl-3,4-dihydroquinoxalin-2(1H)-one]
29 | 0.06 | CC(C)[C@H]1C(=O)Nc2ccccc2N1C(=O)c1cnc2[nH]ncc2c1 [Compound 83, (S)-3-isopropyl-4-(1H-pyrazolo[3,4-b]pyridine-5-carbonyl)-3,4-dihydroquinoxalin-2(1H)-one]
30 | 0.29 | CC(C)[C@H]1C(=O)Nc2ccccc2N1C(=O)c1cnn(C2CC2)c1 [Compound 84, (S)-4-(1-cyclopropyl-1H-pyrazole-4-carbonyl)-3-isopropyl-3,4-dihydroquinoxalin-2(1H)-one]
31 | 0.15 | CC(C)[C@H]1C(=O)Nc2ccccc2N1C(=O)c1ccc(=O)[nH]c1 [Compound 85, (S)-3-isopropyl-4-(6-oxo-1,6-dihydropyridine-3-carbonyl)-3,4-dihydroquinoxalin-2(1H)-one]
32 | 0.2 | CC(C)[C@H]1C(=O)Nc2ccccc2N1C(=O)c1cn[nH]c1 [Compound 86, (S)-3-isopropyl-4-(1H-pyrazole-4-carbonyl)-3,4-dihydroquinoxalin-2(1H)-one]
33 | 2.15 | CC(C)[C@H]1C(=O)Nc2cccnc2N1C(=O)c1ccc(=O)n(C)c1 [Compound 87, (S)-3-isopropyl-4-(1-methyl-6-oxo-1,6-dihydropyridine-3-carbonyl)-3,4-dihydropyrido[2,3-b]pyrazin-2(1H)-one]
34 | 0.71 | CC[C@H](C)[C@H]1C(=O)Nc2cnccc2N1C(=O)c1ccc(=O)[nH]c1 [Compound 90, (S)-2-((S)-sec-butyl)-1-(6-oxo-1,6-dihydropyridine-3-carbonyl)-1,4-dihydropyrido[3,4-b]pyrazin-3(2H)-one]
